Laboratory results published in US20230399341A1, “7-PHENYL SUBSTITUTED 2-AMINOQUINAZOLINE INHIBITORS OF HPK1” (MERCK SHARP & DOHME LLC, priority 2020, published 2023).
pIC50: −log10 of the molar value.

Molecular target: T1, Human HPK1, catalytic domain (Homo sapiens, UniProt Q92918)
T1 sequence (Q92918 1-346): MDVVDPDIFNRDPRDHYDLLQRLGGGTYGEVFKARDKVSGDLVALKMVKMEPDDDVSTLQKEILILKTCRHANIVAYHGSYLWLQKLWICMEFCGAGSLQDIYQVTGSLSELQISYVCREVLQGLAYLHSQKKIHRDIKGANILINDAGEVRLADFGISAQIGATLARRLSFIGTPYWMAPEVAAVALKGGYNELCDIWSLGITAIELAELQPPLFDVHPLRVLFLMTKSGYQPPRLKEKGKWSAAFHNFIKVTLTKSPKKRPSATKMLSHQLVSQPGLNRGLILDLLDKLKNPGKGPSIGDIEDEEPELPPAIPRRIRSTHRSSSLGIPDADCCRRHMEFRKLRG
Assay: HPK1-SLP76 TR-FRET Assay
Type: biochemical
Conditions: 75 pM HPK1, ATP 10 uM, SLP76 10 nM, 30 min pre-incubation, 60 min reaction

| Structure (SMILES) | pIC50 |
| --- | --- |
| COc1cc2c(cc1Nc1ncc3ccc(-c4cccc(N5CCOCC5)c4)cc3n1)CNCC2 [Compound 1-91, N-(6-methoxy-1,2,3,4-tetrahydroisoquinolin-7-yl)-7-[3-(morpholin-4-yl)phenyl]quinazolin-2-amine] | 6.68 |
| COc1cc2c(cc1Nc1ncc3ccc(-c4cc(C#N)ccc4F)cc3n1)CNCC2 [Compound 1-90, 4-fluoro-3-{2-[(6-methoxy-1,2,3,4-tetrahydroisoquinolin-7-yl)amino]quinazolin-7-yl}benzonitrile] | 6.41 |
| COc1ccc(-c2ccc3cnc(Nc4cc5c(cc4OC)CCNC5)nc3c2)cn1 [Compound 1-39, 7-(6-methoxypyridin-3-yl)-N-(6-methoxy-1,2,3,4-tetrahydroisoquinolin-7-yl)quinazolin-2-amine] | 7.46 |
| COc1cc2c(cc1Nc1ncc3ccc(-c4ccc5c(c4)CCC(=O)N5)cc3n1)CNCC2 [Compound 1-88, 6-{2-[(6-methoxy-1,2,3,4-tetrahydroisoquinolin-7-yl)amino]quinazolin-7-yl}-3,4-dihydroquinolin-2(1H)-one] | 7.01 |
| COc1cc2c(cc1Nc1ncc3ccc(-c4cc(S(=O)(=O)N5CCCC5)ccc4C)cc3n1)CNCC2 [Compound 1-78, N-(6-methoxy-1,2,3,4-tetrahydroisoquinolin-7-yl)-7-{2-methyl-5-[(pyrrolidin-1-yl)sulfonyl]phenyl}quinazo-lin-2-amine] | 6.45 |
| COc1cc2c(cc1Nc1ncc3ccc(-c4ccccc4C4CC4)cc3n1)CNCC2 [Compound 1-92, 7-(2-cyclopropylphenyl)-N-(6-methoxy-1,2,3,4-tetrahydroisoquinolin-7-yl)quinazolin-2-amine] | 7.03 |
| COc1cc2c(cc1Nc1ncc3ccc(-c4ccc(CC#N)cc4)cc3n1)CNCC2 [Compound 1-64, (4-{2-[(6-methoxy-1,2,3,4-tetrahydroisoquinolin-7-yl)amino]quinazolin-7-yl}phenyl)acetonitrile] | 7.09 |
| COc1cc2c(cc1Nc1ncc3ccc(-c4cc(C)ccc4N4CCOC4=O)cc3n1)CN(C)CC2 [Compound 1-11, 3-(2-{2-[(6-methoxy-2-methyl-1,2,3,4-tetrahydroisoquinolin-7-yl)amino]quinazolin-7-yl}-4-methylphenyl)-1,3-oxazolidin-2-one] | 6.75 |
| CCC(=O)Nc1cncc(-c2ccc3cnc(Nc4cc5c(cc4OC)CCNC5)nc3c2)c1 [Compound 1-52, N-(5-{2-[(6-methoxy-1,2,3,4-tetrahydroisoquinolin-7-yl)amino]quinazolin-7-yl}pyridin-3-yl)propanamide] | 7.96 |

The remaining lines, values ahead:

| pIC50 | Structure (SMILES) |
| --- | --- |
| 10.21 | Cc1c(-c2cc3nc(Nc4ccc5c(c4)CN(C)CC5(C)C)ncc3c(N)c2F)cnc2c1NCCO2 [Compound 2-150, 6-fluoro-7-(8-methyl-2,3-dihydro-1H-pyrido[2,3-b][1,4]oxazin-7-yl)-N~2~- (2,4,4-trimethyl-1,2,3,4-tetrahydroisoquinolin-7-yl)quinazoline-2,5-diamine] |
| 6.97 | COc1cc2c(cc1Nc1ncc3ccc(N[C@@H]4COC[C@@H]4F)cc3n1)CN(C)CC2 [Compound 3-67, N~7~-[(3R,4R)-4-fluorooxolan-3-yl]-N~2~-(6-methoxy-2-meth-yl-1,2,3,4-tetrahydroisoquinolin-7-yl)quinazoline-2,7-diamine] |
| 10.12 | Cc1c(-c2cc3nc(Nc4ccc(C5CCN(C)C5=O)cc4)ncc3c(N)c2F)cnc2c1NCCO2 (single isomer, unassigned) [Compound 2-147, (R or S)-3-(4-{[5-amino-6-fluoro-7-(8-methyl-2,3-dihydro-1H-pyrido[2,3-b][1,4]oxazin-7-yl)quinazolin-2-yl]amino}phenyl)-1-methylpyrrolidin-2-one] |
| 10.29 | CNC(=O)c1ccc(Nc2ncc3c(N)c(F)c(-c4cnc5c(c4C)NCCO5)cc3n2)cc1 [Compound 2-23, 4-{[5-amino-6-fluoro-7-(8-methyl-2,3-dihydro-1H-pyrido[2,3-b][1,4]oxazin-7-yl)quinazolin-2-yl]amino}-N-methylbenzamide] |
| 9.29 | COc1cc(F)ccc1Nc1ncc2c(N)c(F)c(-c3cnc4c(c3C)NCCO4)cc2n1 [Compound 2-69, 6-fluoro-N~2~-(4-fluoro-2-methoxyphenyl)-7-(8-methyl-2,3-dihydro-1H-pyrido[2,3-b][1,4]oxazin-7-yl)quinazoline-2,5-diamine] |
| 9.05 | COc1cc2c(cc1Nc1ncc3ccc(Nc4cc(CO)ccn4)cc3n1)CN(C)CC2 [Compound 3-40, [2-({2-[(6-methoxy-2-methyl-1,2,3,4-tetrahydroisoquinolin-7-yl)amino]quinazolin-7-yl}-amino)pyridin-4-yl]methanol] |
| 6.64 | COc1cc2c(cc1Nc1ncc3ccc(NC4CCCC(O)C4)cc3n1)CN(C)CC2 (racemic) [Compound 3-39, (±)-3-({2-[(6-methoxy-2-methyl-1,2,3,4-tetrahydroisoquinolin-7-yl)amino]quinazolin-7-yl}-amino)cyclohexan-1-ol] |
| 7.05 | COc1cc2c(cc1Nc1ncc3ccc(NCC4(C)CCOC4)cc3n1)CN(C)CC2 (racemic) [Compound 3-75, (S and R)-N~2~-(6-methoxy-2-methyl-1,2,3,4-tetrahydroiso-quinolin-7-yl)-N~7~-[(3-meth-yloxolan-3-yl)methyl]quinaz-oline-2,7-diamine] |
| 9.93 | COc1ncccc1Nc1ncc2c(N)c(F)c(-c3cnc4c(c3C)NCCO4)cc2n1 [Compound 2-27, 6-fluoro-N~2~-(2-methoxypyridin-3-yl)-7-(8-methyl-2,3-dihydro-1H-pyrido[2,3-b][1,4]oxazin-7-yl)quinazoline-2,5-diamine] |
| 10.14 | CNC(=O)C1(c2ccc(Nc3ncc4c(N)c(F)c(-c5cnc6c(c5C)NCCO6)cc4n3)cc2)CCCCC1 [Compound 2-80, 1-(4-((5-amino-6-fluoro-7-(8-methyl-2,3-dihydro-1H-pyrido[2,3-b][1,4]oxazin-7-yl)quinazolin-2-yl)amino)phenyl)-N-methylcyclohexane-1-carboxamide] |
| 7.12 | COc1ccncc1Nc1ncc2c(N)c(F)c(-c3cnc4c(c3C)NCCO4)cc2n1 [Compound 2-20, 6-fluoro-N~2~-(4-methoxypyridin-3-yl)-7-(8-methyl-2,3-dihydro-1H-pyrido[2,3-b][1,4]oxazin-7-yl)quinazoline-2,5-diamine] |
| 8.51 | COc1cc2c(cc1Nc1ncc3c(N)c(F)c(-c4cnc5c(c4C)NCCO5)cc3n1)C(CO)N(C)CC2 (racemic) [Compound 2-46, (R and S)-(7-{[5-amino-6-fluoro-7-(8-methyl-2,3-dihydro-1H-pyrido[2,3-b][1,4]oxazin-7-yl)quinazolin-2-yl]amino}-6-methoxy-2-methyl-1,2,3,4-tetrahydroisoquinolin-1-yl)methanol] |
| 9.99 | COc1cc(C(C)S(C)(=O)=O)ccc1Nc1ncc2c(N)c(F)c(-c3cnc4c(c3C)NCCO4)cc2n1 (single isomer, unassigned) [Compound 2-56, (R or S)-6-fluoro-N˜2˜-{2-methoxy-4-[1-(methylsulfonyl)ethyl]phenyl}-7-(8-methyl-2,3-dihydro-1H-pyrido[2,3-b][1,4]oxazin-7-yl)quinazoline-2,5-diamine] |
| 6.49 | COC(=O)Cc1ccc(OC)c(Nc2ncc3c(N)c(F)c(-c4cnc5c(c4C)NCCO5)cc3n2)c1 [Compound 2-3, methyl (3-{[5-amino-6-fluoro-7-(8-methyl-2,3-dihydro-1H-pyrido[2,3-b][1,4]oxazin-7-yl)quinazolin-2-yl]amino}-4-methoxyphenyl)acetate] |
| 9.60 | Cc1c(-c2c(F)c(N)c3cnc(Nc4ccc(CS(C)(=O)=O)cc4)nc3c2Cl)cnc2c1NCC(C)(C)O2 [Compound 2-161, (+ and −)-8-chloro-6-fluoro-N~2~-{4-[(methylsulfonyl)methyl]phenyl}-7-(3,3,8-trimethyl-2,3-dihydro-1H-pyrido[2,3-b][1,4]oxazin-7-yl)quinazoline-2,5-diamine] |
| 10.09 | CC(=O)NCc1ccc(Nc2ncc3c(N)c(F)c(-c4cnc5c(c4C)NCCO5)cc3n2)cc1 [Compound 2-30, N-[(4-{[5-amino-6-fluoro-7-(8-methyl-2,3-dihydro-1H-pyrido[2,3-b][1,4]oxazin-7-yl)quinazolin-2-yl]amino}phenyl)methyl] acetamide] |
| 10.00 | COc1cc2c(cc1Nc1ncc3c(N)c(F)c(-c4cnc5c(c4C)NCCO5)cc3n1)C(C)N(C)CC2 (single isomer, unassigned) [Compound 2-36, (S or R)-6-fluoro-N^2-(6-methoxy-1,2-dimethyl-1,2,3,4-tetrahydroisoquinolin-7-yl)-7-(8-methyl-2,3-dihydro-1H-pyrido[2,3-b][1,4]oxazin-7-yl)quinazoline-2,5-diamine] |
| 7.69 | COc1cc2c(cc1Nc1ncc3ccc(Nc4cccc(CO)n4)cc3n1)CN(C)CC2 [Compound 3-29, [6-({2-[(6-methoxy-2-methyl-1,2,3,4-tetrahydroisoquinolin-7-yl)amino]quinazolin-7-yl}-amino)pyridin-2-yl]methanol] |
| 6.54 | COc1cc2c(cc1Nc1ncc3ccc(NC[C@@H]4CCC(=O)N4)cc3n1)CN(C)CC2 [Compound 3-45, (5S)-5-[({2-[(6-methoxy-2-meth-yl-1,2,3,4-tetrahydroisoquinolin-7-yl)amino]quinazolin-7-yl}-amino)methyl]pyrrolidin-2-one] |
| 6.62 | COc1cc2c(cc1Nc1ncc3ccc(NC4(C)COC4)cc3n1)CN(C)CC2 [Compound 3-55, N~2~-(6-methoxy-2-methyl-1,2,3,4-tetrahydroisoquinolin-7-yl)-N~7~-(3-methyloxetan-3-yl)quinazoline-2,7-diamine] |
